We go through 43 molecules from a melting point compilation (Tetko et al.).

Broadly, the melting point is the temperature of the solid-liquid transition.

Turning to `CC(=O)/C=C/c1ccc([N+](=O)[O-])o1`, the melting point was in the range of 192 to 195 °C. With `O=C(Oc1ccccc1)c1cccc(C(=O)Oc2ccccc2)c1`, the melting point was in the range of 136 to 139 °C. The same measure for `O=C(O)C1CCCO1` (stereo not drawn): 21 °C; for `CC1(C)OC2CC3C4CC(F)C5=CC(=O)C=CC5(C)C4(F)C(O)CC3(C)C2(C(=O)CO)O1` (stereo not drawn): 266 °C. Then `CC(C)CC(=O)C=Cc1ccccc1`, with 43 °C.

With `CCC1C(=O)OCC1Cc1cncn1C` (stereo not drawn), the melting point was determined as 34 °C. The same measure for `C=C(C)CCCCCCCCCC`: -31 °C.

Turning to `COc1ccc(C(=O)NNC(=O)c2cccc3ccccc23)cc1`, the melting point was determined as 189 °C. The same measure for `N#Cc1cc(N)ccc1-n1cccc1`: 135 to 136 °C. Then `CC(=O)Nc1ccsc1C(=O)O`, with 200 to 202 °C. Then `CC12CC(=CO)C(=O)CC1CCC1C2CCC2(C)C1CCC2(C)O` (stereo not drawn), with 188 °C; and `COc1ccc(-c2ccc(S(=O)(=O)Cl)cc2)cc1`, with 103 to 106 °C. In turn, `COc1ccc(NC(=O)C(C)=O)cc1` had a melting point of 127 °C. As to `O=C1N(c2ccccc2)N(c2ccccc2/N=N\c2ccccc2)C1(c1ccccc1)c1ccccc1`, the melting point is 163 °C. Then `Ic1cccc(Cn2cncn2)c1`, with 53 to 55 °C. The same measure for `CC(C)OC(=O)COc1cc(Cl)c(Cl)cc1Cl`: 45 °C. The molecule `CSc1nc2ccccc2c(=O)n1C` displayed a melting point of 65 to 67 °C.

Molecule `O=[N+]([O-])c1c(Br)sc(Br)c1[N+](=O)[O-]` had a melting point of 136 °C. The same measure for `O=C(NCCN=Cc1ccccn1)C(=O)NCc1ccccn1`: 125 °C; for `O=C1CC(=O)CC(c2ccco2)C1`: 146 to 149 °C. The same measure for `CCCCC#CCCCCC`: -74.1 °C; for `NC(=S)C1CCN(C(=O)OCc2ccccc2)CC1`: 128 to 130 °C; for `Cc1ccc(C2CC(c3ccc4ccccc4c3)=NN2c2ccccc2)cc1` (stereo not drawn): 168 °C. The same measure for `COc1ccccc1C1Nc2nc(C(F)(F)F)nn2C(N)=C1C#N` (stereo not drawn): 245 °C. `O=C(NC(Cc1ccc2ccccc2c1)C(=O)O)OCC1c2ccccc2-c2ccccc21` (stereo not drawn): the melting point was determined as 191 °C. Then `O=Cc1ccc2cccnc2n1`, with 138 to 143 °C; and `CC(=O)N1CC(O)CC1C(=O)O` (stereo not drawn), with 132 °C; and `Cc1ccccc1NN=C1C(=O)OC(C)(C)OC1=O`, with 106 °C.

For `CC(C)[C@@H]1COC(=O)N1`, the melting point lay within 70 to 73 °C. Then `Cc1cc(C)c2c(c1)CC2(C)O` (stereo not drawn), with 58 °C; and `O=[N+]([O-])c1ccc(NS(=O)(=O)c2ccc(Cl)c(C(F)(F)F)c2)c(Cl)c1`, with 170 °C. The same measure for `CC12CCCCC1(C)C1CCC3(C)C(O)CCC3(C)C1CC2` (stereo not drawn): 167 °C; for `COc1ccc(C(C)=NO)cc1OC`: 147 to 150 °C; for `CN1CCN(C2=Nc3ccccc3Cc3ccccc32)CC1`: 137 °C. Regarding `CC(=O)c1c(C)c(C)cc(C)c1C`, the melting point was determined as 75 °C. The same measure for `O=C(Nc1ccc(Br)cc1)C(C(F)(F)F)C(F)(F)F`: 186 °C. Then `CC(C)(O)C(N)C(=O)O` (racemic), with 200 to 202 °C; and `Brc1ccc(-c2ccno2)s1`, with 66 to 67 °C.

The molecule `Oc1ccc(Br)c(F)c1` came in with a melting point of 71.5 to 72.5 °C. The same measure for `O=C(O)C1CCC1C(=O)O` (stereo not drawn): 131 °C. The same measure for `O=C1NN(c2ccccc2)C(=O)C1=CNc1ccccc1`: 276 °C.

Take `O=c1cnn(C2OC(CO)C(O)C2O)c(=O)[nH]1` (stereo not drawn): the melting point was 158 °C.

Molecule `Cn1cccc1-c1nnc(S)n1-c1ccc(Cl)cc1Cl` came in with a melting point of 252 to 256 °C.
